# Test results reported in patent US20250179017A1 (GUANGDONG NEWOPP BIOPHARMACEUTICALS CO., LTD., priority 2022, published 2025).
# Biological target: T1, human EP2 (PTGER2) (Homo sapiens, UniProt P43116)
# T1 construct: Cayman Chemical (Human EP2 Reporter Assay Kit)
# Assay: EP2 antagonist assay (HEK-293 CNG membrane potential cAMP assay / 293T SEAP reporter assay, PGE2-stimulated)
# Format: cell-based
# Conditions: EP2 antagonist activity; concentration for 50% inhibition of signal compared to DMSO
# How it was run: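 Two formats. In a CRE-SEAP reporter assay, reverse-transfected 293T cells received compound with PGE2 (13 nM final) for 6-8 h, then luminescence was read. In the ACTOne CNG format, HEK-293 cells were preincubated with compound for 15 min at RT, stimulated with 5 nM PGE2 for 30 min, and read by membrane-potential dye fluorescence. IC50 was taken versus DMSO.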
# T1 sequence (P43116 whole entry): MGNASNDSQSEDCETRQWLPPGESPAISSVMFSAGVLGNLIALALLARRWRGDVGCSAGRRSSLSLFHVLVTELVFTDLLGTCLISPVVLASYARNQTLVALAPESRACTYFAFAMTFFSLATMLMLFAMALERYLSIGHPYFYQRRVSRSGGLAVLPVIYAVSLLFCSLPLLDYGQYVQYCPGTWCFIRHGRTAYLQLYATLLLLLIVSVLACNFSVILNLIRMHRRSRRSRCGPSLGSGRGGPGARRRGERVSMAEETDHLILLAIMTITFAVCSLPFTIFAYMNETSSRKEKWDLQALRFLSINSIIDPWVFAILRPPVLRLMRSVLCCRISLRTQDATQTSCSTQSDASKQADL
row,Structure (SMILES),IC50 [nM]
1,"O=C(O)c1ccc(CNC(=O)c2cc(-c3cc(F)cc(F)c3)cc3cnn(Cc4ccc(C(F)(F)F)cc4)c23)cc1 [Example 99, 4-((5-(3,5-difluorophenyl)-1-(4-(trifluoromethyl)benzyl)-1H-indazole-7-carboxamido)methyl)benzoic acid]",< 100
2,"O=C(O)c1ccc(CNC(=O)c2ccc(Nc3ccccc3)c3ccn(Cc4cccc(Cl)c4)c23)cc1 [Example 103, 4-((1-(3-chlorobenzyl)-4-(phenylamino)-1H-indole-7-carboxamido)methyl)benzoic acid]",100 to 1000
3,"O=C(O)c1ccc(CNC(=O)c2cc(-c3cccnc3)cc3ccn(Cc4cccc(Cl)c4)c23)cc1 [Example 104, 4-((1-(3-chlorobenzyl)-5-(pyridin-3-yl)-1H-indole-7-carboxamido)methyl)benzoic acid]",< 100
4,"O=C(O)c1ccc(CNC(=O)c2cc(-c3ccccc3)cc3ccn(Cc4cccc(Cl)c4)c23)cc1 [Example 105, 4-((1-(3-chlorobenzyl)-5-phenyl-1H-indole-7-carboxamido)methyl)benzoic acid]",< 100
5,"C[C@H](NC(=O)c1cc(-c2cccc(C#N)c2)cc2ccn(Cc3cccc(Cl)c3)c12)c1ccc(C(=O)O)cc1 [Example 108, (S)-4-(1-(1-(3-chlorobenzyl)-5-(3-cyanophenyl)-1H-indole-7-carboxamido)ethyl)benzoic acid]",< 100
6,"C[C@H](NC(=O)c1cc(-c2cccnc2)cc2ccn(Cc3cccc(Cl)c3)c12)c1ccc(C(=O)O)cc1 [Example 109, (S)-4-(1-(1-(3-chlorobenzyl)-5-(pyridin-3-yl)-1H-indole-7-carboxamido)ethyl)benzoic acid]",< 100
7,"C[C@H](NC(=O)c1cc(-c2ccccc2)cc2ccn(Cc3cccc(Cl)c3)c12)c1ccc(C(=O)O)cc1 [Example 110, (S)-4-(1-(1-(3-chlorobenzyl)-5-phenyl-1H-indole-7-carboxamido)ethyl)benzoic acid]",< 100
8,"C[C@H](NC(=O)c1cc(-c2cc(F)cc(F)c2)cc2ccn(Cc3cccc(Cl)c3)c12)c1ccc(C(=O)O)cc1 [Example 111, (S)-4-(1-(1-(3-chlorobenzyl)-5-(3,5-difluorophenyl)-1H-indole-7-carboxamido)ethyl)benzoic acid]",< 100
9,"CNC(=O)c1cccc(-c2cc(C(=O)NCc3ccc(C(=O)O)cc3)c3c(ccn3Cc3ccc(C(F)(F)F)cc3)c2)c1 [Example 116, 4-((5-(3-(methylcarbamoyl)phenyl)-1-(4-(trifluoromethyl)benzyl)-1H-indole-7-carboxamido)methyl)benzoic acid]",100 to 1000
10,"N#Cc1cccc(-c2cc(C(=O)NC34CC(CC(=O)O)(C3)C4)c3c(Sc4ccc(C(F)(F)F)cc4)c[nH]c3c2)c1 [Example 118, 2-(3-(6-(3-cyanophenyl)-3-((4-(trifluoromethyl)phenyl)thio)-1H-indole-4-carboxamido)bicyclo[1.1.1]pentan-1-yl)acetic acid]",100 to 1000
11,"N#Cc1cccc(-c2cc(C(=O)NCC34CC(C(=O)O)(C3)C4)c3c(Sc4ccc(C(F)(F)F)cc4)c[nH]c3c2)c1 [Example 119, 3-((6-(3-cyanophenyl)-3-((4-(trifluoromethyl)phenyl)thio)-1H-indole-4-carboxamido)methyl)bicyclo[1.1.1]pentane-1-carboxylic acid]",100 to 1000
12,"Cn1cc(Sc2ccc(C(F)(F)F)cc2)c2c(C(=O)NCc3ccc(C(=O)O)cc3)cc(-c3cccc(C#N)c3)cc21 [Example 120, 4-((6-(3-cyanophenyl)-1-methyl-3-((4-(trifluoromethyl)phenyl)thio)-1H-indole-4-carboxamido)methyl)benzoic acid]",100 to 1000
13,"Cn1cc(Sc2ccc(C(F)(F)F)cc2)c2c(C(=O)NCc3ccc(C(=O)O)cc3)cc(-c3cccc(C(N)=O)c3)cc21 [Example 121, 4-((6-(3-carbamoylphenyl)-1-methyl-3-((4-(trifluoromethyl)phenyl)thio)-1H-indole-4-carboxamido)methyl)benzoic acid]",100 to 1000
14,"O=C(O)c1ccc(CNC(=O)c2cc(-c3ccccc3)cc3ccn(Cc4cccc(C(F)(F)F)c4)c23)cc1 [Example 122, 4-((5-phenyl-1-(3-(trifluoromethyl)benzyl)-1H-indole-7-carboxamido)methyl)benzoic acid]",< 100
15,"O=C(O)c1ccc(CNC(=O)c2cc(-c3cccnc3)cc3ccn(Cc4cccc(C(F)(F)F)c4)c23)cc1 [Example 123, 4-((5-(pyridin-3-yl)-1-(3-(trifluoromethyl)benzyl)-1H-indole-7-carboxamido)methyl)benzoic acid]",100 to 1000
16,"O=C(O)c1ccc(CNC(=O)c2cc(-c3cc(F)cc(F)c3)cc3ccn(Cc4cccc(C(F)(F)F)c4)c23)cc1 [Example 125, 4-((5-(3,5-difluorophenyl)-1-(3-(trifluoromethyl)benzyl)-1H-indole-7-carboxamido)methyl)benzoic acid]",< 100
17,"N#Cc1cccc(-c2cc(C(=O)NCc3ccc(C(=O)O)cc3)c3c(ccn3Cc3cccc(C(F)(F)F)c3)c2)c1 [Example 126, 4-((5-(3-cyanophenyl)-1-(3-(trifluoromethyl)benzyl)-1H-indole-7-carboxamido)methyl)benzoic acid]",< 100
18,"C[C@H](NC(=O)c1cc(-c2cccc(C#N)c2)cc2ccn(Cc3cccc(C(F)(F)F)c3)c12)c1ccc(C(=O)O)cc1 [Example 127, (S)-4-(1-(5-(3-cyanophenyl)-1-(3-(trifluoromethyl)benzyl)-1H-indole-7-carboxamido)ethyl)benzoic acid]",< 100
19,"C[C@H](NC(=O)c1cc(-c2cccnc2)cc2ccn(Cc3cccc(C(F)(F)F)c3)c12)c1ccc(C(=O)O)cc1 [Example 128, (S)-4-(1-(5-(pyridin-3-yl)-1-(3-(trifluoromethyl)benzyl)-1H-indole-7-carboxamido)ethyl)benzoic acid]",< 100
20,"C[C@H](NC(=O)c1cc(-c2cc(F)cc(F)c2)cc2ccn(Cc3cccc(C(F)(F)F)c3)c12)c1ccc(C(=O)O)cc1 [Example 130, (S)-4-(1-(5-(3,5-difluorophenyl)-1-(3-(trifluoromethyl)benzyl)-1H-indole-7-carboxamido)ethyl)benzoic acid]",< 100
21,"O=C(O)c1ccc(C2(NC(=O)c3cc(-c4ccccc4)cc4ccn(Cc5cccc(C(F)(F)F)c5)c34)CC2)cc1 [Example 131, 4-(1-(5-phenyl-1-(3-(trifluoromethyl)benzyl)-1H-indole-7-carboxamido)cyclopropyl)benzoic acid]",100 to 1000
22,"O=C(O)c1ccc(C2(NC(=O)c3cc(-c4cc(F)cc(F)c4)cc4ccn(Cc5cccc(C(F)(F)F)c5)c34)CC2)cc1 [Example 132, 4-(1-(5-(3,5-difluorophenyl)-1-(3-(trifluoromethyl)benzyl)-1H-indole-7-carboxamido)cyclopropyl)benzoic acid]",100 to 1000
23,"N#Cc1cccc(-c2cc(C(=O)NC3(c4ccc(C(=O)O)cc4)CC3)c3c(ccn3Cc3cccc(C(F)(F)F)c3)c2)c1 [Example 133, 4-(1-(5-(3-cyanophenyl)-1-(3-(trifluoromethyl)benzyl)-1H-indole-7-carboxamido)cyclopropyl)benzoic acid]",100 to 1000

# Now from value to compound:
row,IC50 [nM],Structure (SMILES)
1,< 100,"O=C(O)c1ccc(CNC(=O)c2cc(-c3ccc(F)cc3)cc3cnn(Cc4cccc(C(F)(F)F)c4)c23)cc1 [Example 138, 4-((5-(4-fluorophenyl)-1-(3-(trifluoromethyl)benzyl)-1H-indazole-7-carboxamido)methyl)benzoic acid]"
2,< 100,"O=C(O)c1ccc(CNC(=O)c2cc(-c3cc(F)cc(F)c3)cc3cnn(Cc4cccc(C(F)(F)F)c4)c23)cc1 [Example 139, 4-((5-(3,5-difluorophenyl)-1-(3-(trifluoromethyl)benzyl)-1H-indazole-7-carboxamido)methyl)benzoic acid]"
3,100 to 1000,"O=C(O)c1ccc(C2(NC(=O)c3cc(-c4ccccc4)cc4cnn(Cc5cccc(C(F)(F)F)c5)c34)CC2)cc1 [Example 140, 4-(1-(5-phenyl-1-(3-(trifluoromethyl)benzyl)-1H-indazole-7-carboxamido)cyclopropyl)benzoic acid]"
4,< 100,"O=C(O)c1ccc(CNC(=O)c2cc(-c3ccc(F)cc3)cc3ccn(Cc4ccc5ccccc5n4)c23)cc1 [Example 142, 4-((5-(4-fluorophenyl)-1-(quinolin-2-ylmethyl)-1H-indole-7-carboxamido)methyl)benzoic acid]"
5,< 100,"C[C@H](NC(=O)c1cc(-c2ccccc2)cc2ccn(Cc3ccc4ccccc4n3)c12)c1ccc(C(=O)O)cc1 [Example 143, (S)-4-(1-(5-phenyl-1-(quinolin-2-ylmethyl)-1H-indole-7-carboxamido)ethyl)benzoic acid]"
6,< 100,"C[C@H](NC(=O)c1cc(-c2ccc(F)cc2)cc2ccn(Cc3ccc4ccccc4n3)c12)c1ccc(C(=O)O)cc1 [Example 144, (S)-4-(1-(5-(4-fluorophenyl)-1-(quinolin-2-ylmethyl)-1H-indole-7-carboxamido)ethyl)benzoic acid]"
7,< 100,"O=C(O)c1ccc(CNC(=O)c2cc(-c3ccccc3)cc3ccn(Cc4cccc(-c5ccccc5)c4)c23)cc1 [Example 145, ((1-([1,1′-biphenyl]-3-ylmethyl)-5-phenyl-1H-indole-7-carboxamido)methyl)benzoic acid]"
8,< 100,"COc1cccc(Cn2ccc3cc(-c4ccccc4)cc(C(=O)NCc4ccc(C(=O)O)cc4)c32)c1 [Example 146, 4-((1-(3-methoxybenzyl)-5-phenyl-1H-indole-7-carboxamido)methyl)benzoic acid]"
9,< 100,"O=C(O)c1ccc(CNC(=O)c2cc(-c3ccc(F)cc3)cc3ccn(Cc4ccc(-c5ccccc5)cc4)c23)cc1 [Example 148, 4-((1-([1,1′-biphenyl]-4-ylmethyl)-5-(4-fluorophenyl)-1H-indole-7-carboxamido)methyl)benzoic acid]"
10,< 100,"O=C(O)c1ccc(CNC(=O)c2ccc(Nc3ccccc3)c3ccn(Cc4ccc5ccccc5n4)c23)cc1 [Example 153, 4-((4-(phenylamino)-1-(quinolin-2-ylmethyl)-1H-indole-7-carboxamido)methyl)benzoic acid]"
